Laboratory results from PubChem BioAssay (NCI).
“And” between values parts separate entries of the source, which are not always exact repeats. Equal values may be shown once.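 Exposure lasted 48 hours, with cells grown in 96-well plates and compounds tested at five concentrations. The concentration for 50% growth inhibition is given as GI50. TGI marks complete inhibition of growth.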

What was measured:
Assay in all cases: inhibition of tumour cell growth, NCI panel, 48 h
OVCAR-5 ovarian = system: OVCAR-5 ovarian
EKVX NSCLC = system: EKVX NSCLC
U251 CNS = system: U251 CNS
RXF 393 renal = system: RXF 393 renal
786-0 renal = system: 786-0 renal
SNB-19 CNS = system: SNB-19 CNS
A549 NSCLC = system: A549 NSCLC
SR leukemia = system: SR leukemia

SMILES | TGI (OVCAR-5 ovarian) | TGI (EKVX NSCLC) | TGI (U251 CNS) | TGI (RXF 393 renal) | TGI (786-0 renal) | TGI (SNB-19 CNS) | TGI (A549 NSCLC) | TGI (SR leukemia) | GI50 (U251 CNS) | GI50 (RXF 393 renal) | GI50 (786-0 renal) | GI50 (A549 NSCLC) | GI50 (OVCAR-5 ovarian) | GI50 (SR leukemia)
N#Cc1cccc(C2C(=O)c3ccc(C(=O)c4ccc5c(c4)C(=O)N(c4ccc(Oc6ccc(N7C(=O)c8ccc(C(=O)c9ccc%10c(c9)C(=O)N(c9cccc(C#N)c9)C%10=O)cc8C7=O)cc6)cc4)C5=O)cc3C2=O)c1 (stereo not drawn) | > 100 µM | > 100 µM | > 100 µM | > 100 µM | > 100 µM | > 100 µM | > 100 µM | – | – | – | – | – | – | –
COc1ccc([C@@H]2OC(=O)C3C2C(=O)O[C@H]3c2ccc(OC)cc2)cc1 (stereo partly drawn) | – | > 100 µM | > 100 µM | > 100 µM | > 100 µM | > 100 µM | > 100 µM | > 100 µM | – | – | – | – | – | –
CSC1=Nc2ccccc2N=C(c2ccccc2)C1 | > 100 µM | > 100 µM | > 100 µM | 71.6 µM | > 100 µM | > 100 µM | > 100 µM | > 100 µM | – | – | – | – | – | –
CC1=C(C(=O)Nc2ccc(C)cc2)C(c2cccc([N+](=O)[O-])c2)C(C(=O)Nc2ccc(C)cc2)=C(C)N1 | > 100 µM | 86.1 µM | 75.6 µM | 63.2 µM | > 100 µM | > 100 µM | > 100 µM | 65.6 µM | – | – | – | – | – | –
CC[As](CC)SCC1OC(OC(C)=O)C(OC(C)=O)C(OC(C)=O)C1OC(C)=O (stereo not drawn) | 32.4 µM | 37.2 µM | 25.3 µM | 9.69 µM | 28.1 µM | 33.5 µM | 39.6 µM | 75.4 µM | – | – | – | – | – | –
COc1ccc2nc3ccccc3c(NCCN(CCCl)CCCl)c2c1 | 2.49 µM | 8.02 µM | 2.31 µM | – | 2.4 µM | 7.66 µM | 10.7 µM | 0.379 µM | – | – | – | – | – | –
CC(=O)O[C@@H]1CC[C@@]2(C)C(=O)C34C[C@@]5(C)C([C@@H](C)CCCC(C)C)CCC5(C)[C@](O)(O3)C(=O)[C@H]4C2C1(C)C (stereo partly drawn) | 29.3 µM | 38.3 µM | 27.4 µM | – | 25.6 µM | 30.7 µM | 29.1 µM | 35.2 µM | – | – | – | – | – | –
Cc1cc(Cl)cc2c1NC(=O)C2(O)C(C(=O)c1ccccc1)c1ccccc1 (stereo not drawn) | > 100 µM | > 100 µM | > 100 µM | 86.1 µM and 31.7 µM | > 100 µM and 29.3 µM | > 100 µM | > 100 µM and 51.5 µM | – | > 100 µM and 31.1 µM | 38 µM and 16.2 µM | 38.2 µM and 12.9 µM | 97.1 µM and 22.6 µM | – | –
CCN(CC)C(=O)CC12CCCCC1=Nc1ccccc12 (stereo not drawn) | > 100 µM | > 100 µM | > 100 µM | – | > 100 µM | – | > 100 µM | – | – | – | – | – | – | –
[CH3][Hg]/[N]=C(/N)NC#N | 31 µM | – | 56 µM | 5.13 µM | 22.4 µM | – | 38.4 µM | 39.9 µM | 23.6 µM | 1.4 µM | 10.2 µM | 17.3 µM | 17.1 µM | 4.39 µM
O=C(CC1(O)C(=O)Nc2ccccc21)c1ccccc1O (stereo not drawn) | > 100 µM | > 100 µM | – | > 100 µM | > 100 µM | > 100 µM | > 100 µM | – | – | – | – | – | – | –
O=C(CC(=O)c1cccc([N+](=O)[O-])c1)C(=O)Nc1ccccc1 | > 100 µM | > 100 µM | > 100 µM | > 100 µM | > 100 µM | > 100 µM | > 100 µM | – | – | – | – | – | – | –
Cc1ccc(NC(=O)CC2SC(=Nc3ccc(Cl)cc3)NC2=O)cc1C (stereo not drawn) | 33.1 µM | 31.4 µM | 32.7 µM | 32 µM | 32 µM | > 100 µM | 34.3 µM | 29.4 µM | – | – | – | – | – | –
CN1C2(c3ccccc3)C(C(=O)c3ccccc3)=C(C(=O)c3ccccc3)C1(c1ccccc1)c1c(-c3ccccc3)sc(-c3ccccc3)c12 | > 100 µM | > 100 µM | > 100 µM | > 100 µM | > 100 µM | > 100 µM | > 100 µM | > 100 µM | – | – | – | – | – | –
Cc1cc(C)nc(NS(=O)(=O)c2ccc(NC(=O)COC(=O)c3cccc4c(=O)c5ccccc5[nH]c34)cc2)n1 | 58.9 µM | > 100 µM | 38.4 µM | 74.5 µM | 58.9 µM | 77.2 µM | > 100 µM | 76.4 µM | – | – | – | – | – | –
Cc1ccccc1-n1c(CCl)nc2ccc(Br)cc2c1=O | 56.3 µM | 35 µM | 25.9 µM | 26.8 µM | 20.6 µM | 77.1 µM | 44.9 µM | > 24.9 µM | – | – | – | – | – | –
O=C(Cc1nc2ccccc2o1)C(=O)Nc1ccc(Cl)cc1Cl | > 100 µM | > 100 µM | > 100 µM | > 100 µM | > 100 µM | > 100 µM | > 100 µM | 51.6 µM | – | – | – | – | – | –
CCc1ccccc1NC(=O)C(=O)C1C(=O)N(c2ccccc2)N=C1N (stereo not drawn) | > 100 µM | > 100 µM | > 100 µM | > 100 µM | > 100 µM | > 100 µM | > 100 µM | – | – | – | – | – | – | –
COC(=O)C1=CC(=O)[C@@H]2CCCC[C@H]12 | – | – | > 100 µM | > 100 µM | > 100 µM | > 100 µM | > 100 µM | > 100 µM | – | – | – | – | – | –
Cc1cc(C)c(/C=N/NS(=O)(=O)c2ccccc2)c(C)c1 | > 100 µM | > 100 µM | > 100 µM | > 100 µM | > 100 µM | – | > 100 µM | > 100 µM | – | – | – | – | – | –
